Experimental data as given in US8778966B2, “Quinolinone derivatives as PARP and tank inhibitors” (Janssen Pharmaceutica, NV, priority 2007, dated 2014).

Test system: PC-3 cells
Experiment: Antiproliferative activity, Alamar Blue assay, PC-3 cells
Type: cell-based, human
Conditions: for IC50: Homo sapiens, PC-3, PC3 cells, read-out: PC3 antiproliferative activity pIC50 (converted)
Method in brief: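 Resazurin-based fluorescence (540 nm ex/590 nm em) measured after 4-day compound treatment plus 24 hrs dye incubation at 37° C. Cells plated at 4.5×10^3 cells/ml, adhered 24 hr first. pIC50 from probit-derived IC50 on % viable cells versus untreated, triplicate wells.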

IC50	PC3 antiproliferative activity pIC50 (PC3 cells)	SMILES
10 µM		CCc1cc2ccc(C(C)(C#N)Cc3ccnc(C#N)c3)cc2[nH]c1=O (centres unmarked) [Compound 324]
1 µM		CCc1cc2ccc(C(C)(C#N)Cc3cc(C)nc(Cl)c3)cc2[nH]c1=O (centres unmarked) [Compound 326]
10 µM		CCc1cc2ccc(C(C)(C#N)Cc3ccnc(F)c3)cc2[nH]c1=O (centres unmarked) [Compound 330]
1.58 µM		CCc1cc2ccc(C(C)(C#N)Cc3cccc(F)n3)cc2[nH]c1=O (centres unmarked) [Compound 331]
10 µM		CCc1cc2ccc([C@](C)(C#N)Cc3cc(F)cc(F)c3)cc2[nH]c1=O [Compound 333]
6.31 µM		CCc1cc2ccc(C(C)(C#N)Cc3ccnc(Cl)c3)cc2[nH]c1=O (centres unmarked) [Compound 341]
	6.4	CCc1cc2ccc(C(C)(C#N)Cc3cc(F)cc(F)c3)cc2[nH]c1=O (centres unmarked) [Compound 402]

The remaining lines, values behind:

SMILES	IC50	PC3 antiproliferative activity pIC50 (PC3 cells)
CCc1cc2ccc(C(C)(C#N)Cc3cc(C)nc(C#N)c3)cc2[nH]c1=O (centres unmarked) [Compound 328]	1.26 µM	
CCc1cc2ccc(C(C)(C#N)Cc3ccc(C(F)(F)F)nc3C)cc2[nH]c1=O (centres unmarked) [Compound 340]	3.98 µM	
CCc1cc2ccc(C(C#N)(CC)Cc3cccc(C#N)n3)cc2[nH]c1=O (centres unmarked) [Compound 342]	1.26 µM	
CCc1cc2ccc(C(C)(C#N)CCOc3ccnc(SC)n3)cc2[nH]c1=O (centres unmarked) [Compound 348]	7.94 µM	
CCc1cc2ccc(C(C)(C#N)CCOc3ncc(Br)cn3)cc2[nH]c1=O (centres unmarked) [Compound 349]	1.58 µM	
CCc1cc2ccc(C(C)(C#N)Cc3nc(C)cc(OC)n3)cc2[nH]c1=O (centres unmarked) [Compound 371]	0.398 µM	
CCc1cc2ccc(C(C)(C#N)CN3CCN(c4ncc(Br)cn4)CC3)cc2[nH]c1=O (centres unmarked) [Compound 374]	0.794 µM	
CCc1cc2ccc(C(C)(C#N)CN3CCc4ccccc4C3)cc2[nH]c1=O (centres unmarked) [Compound 376]	2.51 µM	
Cc1cc2ccc([C@@](C)(C#N)[C@@H]3CCCc4ccccc43)cc2[nH]c1=O [Compound 382]	10 µM	
CCc1cc2ccc(C(C#N)(CC)Cc3cccc(CN)c3)cc2[nH]c1=O (centres unmarked) [Compound 390]	2.51 µM	
CCc1cc2ccc([C@](C)(C#N)C[C@H]3Cc4ccccc4O3)cc2[nH]c1=O [Compound 397]	10 µM	
CCc1cc2ccc(C(C)(C#N)CC3Oc4ccccc4O3)cc2[nH]c1=O (centres unmarked) [Compound 398]	7.94 µM	
CCc1cc2ccc(C(C#N)(CC)C3CCc4ccc(OC)cc43)cc2[nH]c1=O (centres unmarked) [Compound 403]	0.316 µM	
Cc1cc2ccc([C@@](C)(C#N)[C@H]3CCc4ccc(Br)cc43)cc2[nH]c1=O [Compound 405]	0.0794 µM	
Cc1cc2ccc([C@](C)(C#N)[C@@H]3CCc4ccc(Br)cc43)cc2[nH]c1=O [Compound 406]	10 µM	
Cc1cc2ccc([C@](C)(C#N)[C@H]3CCc4ccc(Br)cc43)cc2[nH]c1=O [Compound 407]	1.26 µM	
